Experiment [1] relates to MIA PaCa-2 cells. The experiment can be described thus: Time-lapse live imaging under NDM. The experiment is classed as cell-based, human. The settings on record: 10 μM in NDM, 37 °C, 5% CO2, imaged 24 h. As to the method:
Thus, more detailed studies were performed on the major compound theonellapeptolide IId (4). Its effect on morphology status of MIA PaCa-2 cells under starvation condition was studied using a double-staining assay with EB (ethidium bromide) and AO (acridine orange). The membranes of dead or dying cells are penetrated by EB and staining in red while living cells are stained by AO, a cell-membrane-permeable dye emitting bright green fluorescence. Both AO and EB stains are known as DNA-intercalating agents. During cell death, EB and AO enter into the cell after the integrity of the cell membrane is disrupted, which facilitates the emission of orange fluorescence. In this study, MIA PaCa-2 cells treated with 5 and 10 μM of theonellapeptolide IId (4) were incubated in starvation condition (NDM) for 24 h, and stained with the EB and AO dyes. In Figure 6A, treatment with 4 led to a dose-dependent increase in EB-stained cells emitting red fluorescence and showing drastic alteration of cell morphology. […] To show the details of cell death in real time, live evidence of the anticancer potential of 4 was studied. A time-lapse live imaging anti-pancreatic cancer experiment under NDM condition was performed for the first time in a multi position in the dish, for monitoring the effect of 4. Moreover, MIA PaCa-2 cells were treated with 10 μM of compound 4 in NDM and incubated at 37 °C at 5% CO2. Real-time anti-austerity potential tracking of 4 showing morphological changes in MIA PaCa-2 cells under NDM was monitored using a Nikon sCMOS camera oxford instrument, Hamamatsu Photonics/Ti-E, for 24 h. Images were captured every 10 min by rotating at several fixed positions in the dish under the phase contrast mode on a CCD Camera imaging system for 24 h. Treatment with 4 under NDM inhibited cell mobility immediately within 60 min and altered morphology of MIA PaCa-2 cells after 4 h was observed, then cell death started after 8 h, finally in 12 h complete cell death was observed (Figure 7, Movies S1 and S2, Supporting Information). In the control, MIA PaCa-2 cells survived 24 h until the end of the experiment in the NDM (Figure 7). Thus, the result of this study provided the first simultaneous multi-site live evidence of the anti-pancreatic cancer therapeutic potential of the compound theonellapeptolide IId (4) against MIA PaCa-2 cells as marine-based anti-austerity agents. […]
Real-time anti-austerity potential tracking anti-pancreatic cancer activity of 4 by showing morphological changes in MIA PaCa-2 cells under NDM was monitored using a Nikon sCMOS camera Oxford instrument, Hamamatsu Photonics/Ti-E, for 24 h. […]

For experiment [2], the system named is MIA PaCa-2 cells. Nature of the experiment: Colony formation assay. The experiment is classed as cell-based, human. The settings on record: then fresh DMEM 10 days, 500 cells/well, three replicates. The procedure:
Figure 6 (A) Morphological changes of MIA PaCa-2 cells induced by 4 in a nutrient-deprived medium (NDM). MIA PaCa-2 tumor cells were treated with 4 at the indicated concentrations in NDM in a 24-well plate and incubated for 24 h. The cells were stained with ethidium bromide (EB) and acridine orange (AO), and photographed in the fluorescence (red and green) under phase contrast modes using a Nikon sCMOS camera oxford instrument, Hamamatsu Photonics/Ti-E. (B) Structure of bioactive compound 4. (C) Effect of 4 on colony formation by MIA PaCa-2 cells in DMEM. (a) Graph showing the average values of the area occupied by MIA PaCa-2 cell colonies (three replicates). **** p < 0.0001 compared to the untreated control group. (b) Representative wells showing colonies of MIA PaCa-2 cells.
Pancreatic cancer cells have a great ability to migrate to surrounding tissues, growing and forming new colonies after metastasis in distant organs with sufficient nutrition. These processes are responsible for the majority of deaths from pancreatic cancer. The phenomenon is called “colonization”, and occurs during cancer metastasis. Migrating pancreatic cancer cells are likely to form small colonies (micrometastases), which then become large tumors. The discovery of potential inhibitors of the colony-forming ability of pancreatic cancer represents a promising approach to prevent pancreatic tumor metastasis. […] Therefore, theonellapeptolides isolated from marine origin were studied for their ability to inhibit MIA PaCa-2 colony formation. MIA PaCa-2 cells (500 cells/well) were placed in a 24-well plate and treated with 4 at 12.5, 25, and 50 μM (non-cytotoxic concentrations) in DMEM for 24 h.
Subsequently, the medium was replaced with fresh DMEM, and the cells were allowed to grow as colonies for 10 days in a humified CO2 incubator at 37 °C. […]
Colony Formation inhibitory effect of 4 at different concentrations against MIA PaCa-2 cells was determined as described previously.

Each structure is given as a SMILES string. Where a SMILES comes first, the peptide text is derived from it. Bridges are numbered along the chain shown (N, C = ends). [ ]: non-standard residue; d: D form. The star is where a group is joined. dNMeaIle = CC[C@H](C)[C@@H](NC)C(=O)O; d(aIle) = CC[C@H](C)[C@@H](N)C(=O)O; NMeI = CC[C@H](C)[C@H](NC)C(=O)O; dNMeL = CN[C@H](CC(C)C)C(=O)O; NMeV = CN[C@H](C(=O)O)C(C)C; Methoxyacetyl = COCC(=O)*; βAla = NCCC(=O)O

For `CC[C@H](C)[C@H]1C(=O)NCCC(=O)N[C@H]([C@@H](C)CC)C(=O)N(C)[C@@H](C(C)C)C(=O)N[C@@H](C)C(=O)NCCC(=O)N[C@H](CC(C)C)C(=O)N(C)[C@H]([C@@H](C)CC)C(=O)O[C@H](C)[C@H](NC(=O)[C@@H](CC(C)C)N(C)C(=O)[C@@H](NC(=O)COC)C(C)C)C(=O)NCCC(=O)N[C@H](CC(C)C)C(=O)N1C` [Compound 4, theonellapeptolide IId] (Methoxyacetyl-V[dNMeL]T[βAla][dL][NMeI][βAla][d(aIle)][NMeV]A[βAla][dL][dNMeaIle]; ester 3-C), in the experiment with MIA PaCa-2 cells [1], the “time after which altered cell morphology was observed” value came to 4 h, the “time after which cell death started” value worked out at 8 h, the “time to complete cell death” value worked out at 12 h and the “time to inhibition of cell mobility” value is given as at most 60 min. In the experiment with MIA PaCa-2 cells [2] (12.5 μM in DMEM for 24 h), the “total well area occupied by colonies” value amounted to 100%. Further, the colony formation entry in the experiment with MIA PaCa-2 cells [2] (25 μM in DMEM for 24 h) is “total inhibition of colony formation”. Further, the colony formation entry in the experiment with MIA PaCa-2 cells [2] (50 μM in DMEM for 24 h) is recorded as “total inhibition of colony formation”.

The values are drawn from publication PMC9697519, “New Theonellapeptolides from Indonesian Marine Sponge Theonella swinhoei as Anti-Austerity Agents” (Marine Drugs, 2022).
